# US20120270875A1, “PYRIMIDINE AMIDE COMPOUNDS” (priority 2011, published 2012)
# pIC50: −log10 of the molar value.
# Target: sLFA-1/ICAM-1 (Homo sapiens, UniProt P05107+P20701, DEL701-769)
# Experiment: sLFA-1/ICAM-1 ELISA
# Assay type: binding
# Details: not given
# Protocol: sLFA-1/ICAM-1 ELISA and Mac-1/ICAM-1 ELISA
# Plates were coated with either 50 μl/well of 2.0 ug/ml solution of sLFA-1 or Mac-1 receptor in divalent cation buffer (1 mM MnCl2, 0.14M NaCl, 20 mM HEPES pH 7.2) at 4° C. overnight. Two hundred fifty μl of blocking buffer (1% BSA in divalent cation buffer) was added to each well 1 hour at 37° C. Plates were washed 3 times with wash buffer (TBS/0.05% Tween-20/1 mM MnCl2). The compound to be tested was solubilized in DMSO. A series of 1:3 dilutions were performed to achieve a concentration range of 0.45 nM-3 uM. Fifty μl of binding buffer (0.5% BSA in divalent cation buffer)/1% DMSO and 50 μl of the solutions to be tested were added to the appropriate wells and incubated for 1 hour. Fifty μl of 5dICAM-Fc (27 ng/ml) was added to the appropriate wells and 50 μl binding buffer was added to non-specific binding wells and incubated for 2 hours and washed. One hundred μl of 1:4000 HRP-goat anti-huIgG was added to each well and incubated for 1 hour and washed. One hundred μl of 1:1 TMB solution was added to each well and developed for 20 min at room temperature. Color development was stopped by adding 100 μl H3PO4 to each well. Absorbance was measured at 450 nm.
# sLFA-1/ICAM-1, sequence (P20701 26-1090 limits assumed, stated change not applied): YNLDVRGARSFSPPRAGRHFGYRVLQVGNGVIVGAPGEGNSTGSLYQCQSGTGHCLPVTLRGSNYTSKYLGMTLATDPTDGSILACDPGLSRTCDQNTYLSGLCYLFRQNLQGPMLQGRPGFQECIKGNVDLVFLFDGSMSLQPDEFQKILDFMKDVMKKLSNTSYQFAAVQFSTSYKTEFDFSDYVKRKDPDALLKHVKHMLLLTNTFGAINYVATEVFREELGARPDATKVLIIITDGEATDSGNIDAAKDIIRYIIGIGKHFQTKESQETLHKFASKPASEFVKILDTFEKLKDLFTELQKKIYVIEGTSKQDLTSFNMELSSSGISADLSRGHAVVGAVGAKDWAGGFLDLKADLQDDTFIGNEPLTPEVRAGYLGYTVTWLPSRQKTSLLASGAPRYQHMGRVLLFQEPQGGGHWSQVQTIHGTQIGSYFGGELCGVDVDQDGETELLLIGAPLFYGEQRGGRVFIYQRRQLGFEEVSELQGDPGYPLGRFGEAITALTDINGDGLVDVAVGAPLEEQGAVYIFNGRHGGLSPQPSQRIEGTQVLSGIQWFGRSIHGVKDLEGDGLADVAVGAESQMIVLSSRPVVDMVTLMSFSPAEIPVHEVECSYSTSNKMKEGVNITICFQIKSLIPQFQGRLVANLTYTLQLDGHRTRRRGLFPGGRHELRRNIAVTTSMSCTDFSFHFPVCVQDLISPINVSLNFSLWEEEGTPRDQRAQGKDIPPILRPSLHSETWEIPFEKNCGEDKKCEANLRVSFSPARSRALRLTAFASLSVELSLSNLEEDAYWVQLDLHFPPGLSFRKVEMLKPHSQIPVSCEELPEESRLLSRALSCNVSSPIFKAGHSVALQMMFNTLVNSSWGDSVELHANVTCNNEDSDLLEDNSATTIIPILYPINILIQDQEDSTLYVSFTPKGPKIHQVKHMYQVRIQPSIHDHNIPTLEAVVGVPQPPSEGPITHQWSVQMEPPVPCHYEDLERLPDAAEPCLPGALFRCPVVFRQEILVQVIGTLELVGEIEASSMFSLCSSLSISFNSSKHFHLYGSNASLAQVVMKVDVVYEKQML
# sLFA-1/ICAM-1, sequence (P05107 23-700 limits assumed, stated change not applied): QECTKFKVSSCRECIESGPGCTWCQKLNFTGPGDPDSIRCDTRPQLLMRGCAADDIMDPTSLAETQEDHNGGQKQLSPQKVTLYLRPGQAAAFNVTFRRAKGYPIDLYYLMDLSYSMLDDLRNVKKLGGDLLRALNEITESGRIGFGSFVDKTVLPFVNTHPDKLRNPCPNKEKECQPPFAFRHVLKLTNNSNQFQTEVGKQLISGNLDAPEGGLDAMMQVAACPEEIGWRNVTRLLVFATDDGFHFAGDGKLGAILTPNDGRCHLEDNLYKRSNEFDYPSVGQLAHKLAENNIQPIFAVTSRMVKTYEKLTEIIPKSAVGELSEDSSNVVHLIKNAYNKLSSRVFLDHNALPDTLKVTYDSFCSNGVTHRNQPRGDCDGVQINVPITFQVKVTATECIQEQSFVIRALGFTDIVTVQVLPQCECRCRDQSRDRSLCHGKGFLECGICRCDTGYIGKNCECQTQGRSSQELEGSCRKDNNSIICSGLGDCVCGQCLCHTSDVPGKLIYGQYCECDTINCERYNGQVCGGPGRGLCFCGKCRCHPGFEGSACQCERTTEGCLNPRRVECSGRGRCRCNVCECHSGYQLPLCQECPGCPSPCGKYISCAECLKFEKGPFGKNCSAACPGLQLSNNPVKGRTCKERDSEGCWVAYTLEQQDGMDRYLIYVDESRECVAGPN
row,SMILES,pIC50
1,"Cc1nc(NCCCc2cccc(O)c2)nc(C)c1C(=O)N[C@@H](CNC(=O)Nc1ccccc1)C(=O)O [Example 107, (S)-2-({2-[3-(3-hydroxy-phenyl)-propylamino]-4,6-dimethyl-pyrimidine-5-carbonyl}-amino)-3-(3-phenyl-ureido)-propionic acid]",6.78

# Same assay, conditions: sLFA-1 coated plates, 5dICAM-Fc binding, ELISA; read-out: LFA-1/ICAM (IC50)
row,SMILES,pIC50
1,"O=C(N[C@@H](CNC(=O)c1cccs1)C(=O)O)c1cnc(NCCCc2cccc(O)c2)nc1 [Example 75, (S)-2-({2-[3-(3-Hydroxy-phenyl)-propylamino]-pyrimidine-5-carbonyl}-amino)-3-[(thiophene-2-carbonyl)-amino]-propionic acid]",7.19
2,"Cc1ccc(O)cc1CCCNc1nc(C)c(C(=O)N[C@@H](CNC(=O)c2cccs2)C(=O)O)c(C)n1 [Example 72, (S)-2-({2-[3-(2-Methyl-5-hydroxy-phenyl)-propylamino]-4,6-dimethyl-pyrimidine-5-carbonyl}-amino)-3-[(thiophene-2-carbonyl)-amino]-propionic acid]",6.80
3,"Cc1nc(NCCCc2ccc(O)cc2)nc(C)c1C(=O)N[C@@H](CNC(=O)c1cccs1)C(=O)O [Example 69, (S)-2-({2-[3-(4-Hydroxy-phenyl)-propylamino]-4,6-dimethyl-pyrimidine-5-carbonyl}-amino)-3-[(thiophene-2-carbonyl)-amino]-propionic acid]",7.55
4,"CCc1ccc(C(=O)NC[C@H](NC(=O)c2c(C)nc(NCCCc3cccc(O)c3)nc2C)C(=O)O)s1 [Example 105, (S)-[(5-Ethyl-thiophene-2-carbonyl)-amino]-2-({2-[3-(3-hydroxy-phenyl)-propylamino]-4,6-dimethyl-pyrimidine-5-carbonyl}-amino)-3-propionic acid]",6.99
5,"O=C(NC[C@H](NC(=O)c1cnc(NCCCc2cccc(O)c2)nc1C(F)(F)F)C(=O)O)c1cccs1 [Example 77, (S)-2-({2-[3-(3-Hydroxy-phenyl)-propylamino]-4-trifluoromethyl-pyrimidine-5-carbonyl}-amino)-3-[(thiophene-2-carbonyl)-amino]-propionic acid]",6.42
6,"Cc1nc(NCCCc2cccc(O)c2)nc(C)c1C(=O)N[C@@H](CNC(=O)c1sccc1Cl)C(=O)O [Example 103, (S)-3-[(3-Chloro-thiophene-2-carbonyl)-amino]-2-({2-[3-(3-hydroxy-phenyl)-propylamino]-4,6-dimethyl-pyrimidine-5-carbonyl}-amino)-propionic acid]",7.18
7,"Cc1nc(NCCCc2cccc(O)c2)nc(C)c1C(=O)N[C@@H](CNC(=O)c1ccc(Cl)s1)C(=O)O [Example 95, (S)-3-[(5-Chloro-thiophene-2-carbonyl)-amino]-2-({2-[3-(3-hydroxy-phenyl)-propylamino]-4,6-dimethyl-pyrimidine-5-carbonyl}-amino)-propionic acid]",6.58
8,"Cc1nc(NCCCc2cc(O)ccc2F)nc(C)c1C(=O)N[C@@H](CNC(=O)c1cccs1)C(=O)O [Example 71, (S)-2-({2-[3-(2-Fluoro-5-hydroxy-phenyl)-propylamino]-4,6-dimethyl-pyrimidine-5-carbonyl}-amino)-3-[(thiophene-2-carbonyl)-amino]-propionic acid]",6.65
9,"Cc1nc(NCc2ccccc2-c2ccccc2O)nc(C)c1C(=O)N[C@@H](CNC(=O)c1cccs1)C(=O)O [Example 14, (S)-2-({2-[(2′-hydroxy-biphenyl-2-ylmethyl)-amino]-4,6-dimethyl-pyrimidine-5-carbonyl}-amino)-3-[(thiophene-2-carbonyl)-amino]-propionic acid]",6.30
10,"Cc1nc(NCCCc2cccc(O)c2)nc(C)c1C(=O)N[C@@H](CNC(=O)c1ccsc1)C(=O)O [Example 85, (S)-2-({2-[3-(3-hydroxy-phenyl)-propylamino]-4,6-dimethyl-pyrimidine-5-carbonyl}-amino)-3-[(thiophene-3-carbonyl)-amino]-propionic acid]",7.92
